Data published in patent US11077090B2, “Compounds and compositions and uses thereof” (Sunovion Pharmaceuticals Inc., priority 2016, dated 2021).

Tests used:
Format in all cases: in vivo
Male C57Bl/6J mice [1] = test: Marble burying test; design: key: −: No reduction in number of marbles buried; +: Significant reduction in number of marbles buried (P < 0.05 vs vehicle)
Method: The marble burying assay is used to evaluate the anxiolytic activity of a test compound. After placement in a novel cage containing glass marbles, mice will bury the marbles. Acute administration of anxiolytic agents, as well as antidepressants, decrease this activity at non-sedating doses. Male C57Bl/6J mice from Jackson Laboratories were used in this study and were acclimatized to the experimental room for at least 1 hour prior to testing. Mice (n=10 per group) were administered sterile water or test compound intraperitoneally (i.p.) or orally by gavage (p.o.), or the positive control chlordiazepoxide (15 mg/kg, i.p.), in 10 mL/kg injection volumes, and returned to their home cages for a 30-minute pretreatment period. The mice were then placed individually in clean cages, containing hard wood bedding and twenty black marbles placed in spaced rows of 4×5. After a 30-minute test session, the number of buried marbles was counted. A marble was considered buried if it was pushed at least two thirds into the bedding. Locomotor activity was monitored by measuring the distance traveled using an overhead camera and Video Tracker Software (ViewPoint Life Sciences Software, France). A reduction in the number of marbles buried relative to the vehicle condition indicates an anxiolytic drug-like effect.

Male C57Bl/6J mice [2] = test: Amphetamine induced hyperlocomotion assay; design: key: #: Significant increase in total distance traveled (P < 0.05 vs vehicle + AMPH group); −: No change in total distance traveled; Significant decrease in total distance traveled (P < 0.05 vs vehicle + AMPH group); conditions: 3 mg/kg PO Compound + AMPH
Method: Psychostimulants such as amphetamine (AMPH) are frequently used to induce or mimic a manic-like or psychotic-like state. AMPH administration to rodents increases horizontal locomotion, vertical rearing and repetitive stereotyped behaviors, and typical antipsychotic drugs, such as haloperidol, can reduce these behaviors. The antimanic/antipsychotic-like effects of test compounds were evaluated in male C57Bl/6J mice from Jackson Laboratories Mice were acclimatized to the experimental room for at least 1 hour prior to testing. The mice (n=10 per group) were administered vehicle or test compound orally by gavage (10 mL/kg injection volume) and placed individually in the novel open field (OF) chambers (Med Associates) for 30 minutes of baseline activity measurement. Mice were then injected with either water or AMPH (4 mg/kg, i.p., 10 mL/kg) and placed back in the same individual OF chambers for a 60-minute testing session during which the effects of test compounds on stimulant-induced behaviors (total distance traveled, rearing and stereotypy) were measured. A reduction in total distance traveled relative to the vehicle+AMPH condition indicates an antimanic/antipsychotic drug-like response.

Adult male AJ mice = test: Tail suspension test (TST); design: key: −: No decrease in Mean Total Time Immobile; +: Significant decrease in Mean Total Time Immobile (P < 0.05 vs vehicle); conditions: 3 mg/kg PO
From the text: The tail suspension test (TST) is a rodent screening test for potential (human) antidepressant drugs. It is based on the assumption that an animal will actively try to escape an aversive (stressful) stimulus. If escape is impossible, the animal will eventually stop trying (“give up”). In the TST, a mouse is suspended by the tail so that its body dangles in the air, head downward. Mice initially struggle to face upward and climb to a solid surface. When the animal stops struggling and hangs immobile it is considered to have “given up”. Shorter periods of immobility are characteristic of antidepressant-like activity. Accordingly, longer periods of immobility are considered indicative of a depressive-like state. It has been shown that treatment with an antidepressant drug will decrease the time the animal spends immobile. See generally L. Steru et al., Psychopharmacology (Berl). 1985; 85(3):367-70; B. Thierry et al., Psychopharmacology 1986; 90:284-85.
Adult male AJ mice from Jackson Laboratories received vehicle (sterile water) or test compound orally by gavage, or the positive control desipramine (20 mg/kg, i.p.), in 10 mL/kg injection volumes, 30 min before being subjected to the Tail Suspension Test. In this test, mice are placed in the Tail Suspension chambers (white polyvinylchloride cubicles measuring 33×33×31.75 cm Med Associates, Inc. St. Albans, Vt.) by a piece of transparent (Scotch®) tape attached to the tail, from about the mid-tail, with approximately 2 cm of tape past the end of the tail for 10 min during which the time spent immobile is measured. A reduction in total time immobile relative to the vehicle condition indicates an antidepressant drug-like response.

Male C57Bl/6J mice [3] = test: Prepulse inhibition of startle (PPI); design: key: −: No change in PPI; +: Significant increase in PPI at one pre-pulse intensity (P < 0.05 vs vehicle); ++: Significant increase in PPI at two pre-pulse intensities (P < 0.05 vs vehicle); +++: Significant increase in PPI at three pre-pulse intensities (P < 0.05 vs vehicle); conditions: 3 mg/kg PO
From the text: The acoustic startle is an unconditioned reflex response to an external auditory stimulus. Prepulse inhibition of startle (PPI) refers to the reduction in the startle response caused by the presentation of a low-intensity auditory stimulus prior to the startle stimulus. The PPI paradigm is used for the study of schizophrenia and antipsychotic action due to the similarities between the results from human and rodent studies. PPI has been used as a tool for the assessment of deficiencies in sensory-motor gating observed in schizophrenia and to screen for potential antipsychotic drugs. Various psychotomimetic drugs, such as phencyclidine (PCP), can disrupt PPI. In mice, antipsychotic drugs such as haloperidol can increase PPI and clozapine can reverse the disruption of PPI induced by PCP.
Male C57Bl/6J mice from Jackson Laboratories were placed in the PPI chambers (Med Associates) for a 5 min session of white noise (70 dB) habituation. After the habituation period, the test session was initiated. The session started with a habituation block of 6 presentations of the startle stimulus alone, followed by 10 PPI blocks, each of which consisted of 6 different types of trials. Trial types were: ‘null’ (no stimuli), ‘startle’ (120 dB), ‘startle plus prepulse’ (4, 8, and 12 dB over background noise, i.e., 74, 78, or 82 dB) and ‘prepulse’ (82 dB). Trial types were presented in a random order within each block. Each trial started with a 50 ms stimulus-free period during which baseline movements were recorded. This was followed by a subsequent 20 ms period during which the prepulse stimulus was presented and responses to the prepulse measured. After a further 100 ms period, the startle stimulus was presented for 40 ms and responses recorded for 100 ms from startle onset. Responses were sampled every ms. The inter-trial interval was variable with an average of 15 s (range from 10 to 20 s). In ‘startle’ trials, the basic auditory startle response was measured. The basic startle response was calculated as the mean startle response of all ‘startle’ trials (i.e., excluding the first habituation block). In ‘startle plus prepulse’ trials, the degree of inhibition of the normal startle was calculated and expressed as a percentage of the basic startle response.
Mice were treated with vehicle or test compound orally by gavage, or haloperidol (1 mg/kg, i.p.), in 10 mL/kg injection volumes, 30 min prior to PPI test. The PPI enclosures were cleaned following each test. An increase in the percent PPI relative to the vehicle condition indicates an antipsychotic drug-like response.

compound-treated mice = test: Neuropharmacological assay (SmartCube): behavioral activity signature and minimal effective dose
In short: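 Video-recorded behavior is compared algorithmically against a reference-compound database, yielding class probabilities (best dose reported). Compounds given i.p. in NMP/PEG/propylene glycol 15 min pre-test at 3 doses; potency as MED, the dose (mpk, range usually 0.3–30) reaching ≥50% total activity.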

male Sprague-Dawley rats = test: Stress induced hyperthermia (SIH) assay; design: key: −: No change in Delta T ([…]T); +: Significant decrease in Delta T ([…]T) (P < 0.05 vs vehicle)
From the text: Stress-induced hyperthermia (SIH), mediated by the autonomic nervous system, is well known to occur prior to and during exposure to stress and/or anxiety-inducing situations. In many human anxiety disorders, it occurs as an integral part of the pathology and is often considered a representative symptom of the disease, e.g. in generalized anxiety disorder as defined in DSM-IV. In rodents, acute administration of anxiolytic drugs, such as buspirone or chlordiazepoxide (CDP), are known to reduce the SIH response to stressors such as handling, noise, heat, novelty, or pain. The test involves two measures of rectal temperature repeated in the same animal with a 10-minute interval. On the day prior to testing, male Sprague-Dawley rats from Envigo (n=10 per group) were brought to the experimental room approximately one hour before scheduled lights out and singly housed overnight with food and water ad libitum. On the morning of the experiment, animals were first injected with either vehicle or test compound orally by gavage, or CDP (10 mg/kg, i.p.). One hour following injection, each animal was removed from the holding cage and held in a supine position while the rectal temperature was measured by slowly inserting a rectal probe into the animal's rectum at a length of approximately 0.5 cm. The rectal probe was attached to a PhysiTemp digital thermometer (Fisher Scientific) which provides temperature readings at 0.1° C. accuracy. The probe remained inside the animal for approximately 5 seconds or until body temperature reaches stability. This temperature was recorded as the baseline rectal temperature (T1). The animal was immediately placed back to the holding cage and after a 10-min interval the second rectal temperature (T2) was taken using the same procedure as in measuring T1. Before each insertion, the rectal probe was cleaned with an alcohol pad and lubricated with sterile K-Y jelly. All SIH studies were conducted between 8:00-11:00 a.m. The SIH response was calculated as the difference in temperature between the second and first temperature reading (Delta T, […]T). A reduction in […]T relative to the vehicle condition indicates an anxiolytic drug-like response.

[4] = i.p. 15 min before test, most efficacious dose(s)

Compound: Cc1ccc2c(c1)[C@H](N)COC2 [Compound 123]
- Marbles Buried (Male C57Bl/6J mice [1]; 3 mg/kg (p.o.)): −
- Total Distance Traveled (Male C57Bl/6J mice [2]): #
- Mean Total Time Immobile (Adult male AJ mice): −
- Effect on Pre-Pulse Inhibition (PPI) (Male C57Bl/6J mice [3]): −

Compound: N[C@@H]1COCc2ccc3ccccc3c21 (single isomer, unassigned) [Compound 117]
- Marbles Buried (Male C57Bl/6J mice [1]; 1 mg/kg (p.o.)): −
- Total Distance Traveled (Male C57Bl/6J mice [2]): −
- Mean Total Time Immobile (Adult male AJ mice): −
- Effect on Pre-Pulse Inhibition (PPI) (Male C57Bl/6J mice [3]): −

Compound: Cc1ccc2c(c1)[C@@H](N)COC2 [Compound 124]
- Marbles Buried (Male C57Bl/6J mice [1]; 3 mg/kg (p.o.)): −
- Total Distance Traveled (Male C57Bl/6J mice [2]): −
- Mean Total Time Immobile (Adult male AJ mice): −
- Effect on Pre-Pulse Inhibition (PPI) (Male C57Bl/6J mice [3]): −

Compound: C[C@@H]1OCc2ccccc2[C@H]1N (single isomer, unassigned) [Example 152]
- Potency: minimal effective dose (MED) (compound-treated mice; MED = dose having 50% or more total activity): A (≤3 mpk)
- AD: ADHD (probability of activity signature) (compound-treated mice; [4]): + (LOQ ≤ + <5%)
- AG: analgesic (probability of activity signature) (compound-treated mice; [4]): ++ (5% ≤ ++ <25%)
- AX: anxiolytic (probability of activity signature) (compound-treated mice; [4]): +++ (25% ≤ +++ <50%)
- CE: cognitive enhancer (probability of activity signature) (compound-treated mice; [4]): ++ (5% ≤ ++ <25%)
- DP: anti-depressant (probability of activity signature) (compound-treated mice; [4]): ++ (5% ≤ ++ <25%)
- MS: mood stabilizer (probability of activity signature) (compound-treated mice; [4]): + (LOQ ≤ + <5%)
- PS: anti-psychotic (probability of activity signature) (compound-treated mice; [4]): ++ (5% ≤ ++ <25%)
- SD: sedative hypnotic (probability of activity signature) (compound-treated mice; [4]): + (LOQ ≤ + <5%)
- UN: uncharacterized CNS activity (probability of activity signature) (compound-treated mice; [4]): +++ (25% ≤ +++ <50%)
- Marbles Buried (Male C57Bl/6J mice [1]; 3 mg/kg (i.p.)): −
- Marbles Buried (Male C57Bl/6J mice [1]; 10 mg/kg (i.p.)): +
- Delta T ([…]T) (male Sprague-Dawley rats; 1 mg/kg PO): +
- Delta T ([…]T) (male Sprague-Dawley rats; 3 mg/kg PO): +
- Delta T ([…]T) (male Sprague-Dawley rats; 10 mg/kg PO): +
- Delta T ([…]T) (male Sprague-Dawley rats; 30 mg/kg PO): +
